Data: patent US6187772A, “Pyrroloazepine compounds” (Suntory Limited, priority 1997, dated 2001)

Key:
α1 = assay: Anti-α1 action (contraction of guinea pig thoracic aorta induced by norepinephrine); format: cell-based, Hartley male guinea pig; conditions: tonic contraction induced by 10^-5 M norepinephrine = 100%, helical thoracic aorta preparation, Tyrode solution, 37° C; for Anti α1 action (% of Control), 10^-7 M: test drug 10^-7 M, 0.1 µM; for Anti α1 action (% of Control), 10^-8 M: test drug 10^-8 M, 0.01 µM
Procedure: (§1) With respect to the compounds of the present invention, their anti-α1 action and anti-serotonin (5-HT) action were investigated by the methods which will be described below.
The thoracic aorta of each Hartley male guinea pig (body weight: 300-500 g) was excised. A preparation cut in a helical form was suspended under 1 g load in a Magnus cylinder filled with the Tyrode solution which had been aerated with a gas mixture of 95% O2 and 5% CO2 and maintained at 37° C. Using an isometric transducer ("TB-612J", manufactured by Nihon Kohden Corporation) and a pressure preamplifier ("AP-620G", manufactured by Nihon Kohden Corporation), variations in tension were measured. The isometric tensions were recorded on a thermal pen-writing recorder ("WT-647G", manufactured by Nihon Kohden Corporation). Taking the tonic contraction induced by 10^-5 M norepinephrine (NE) as 100%, the percent contractions upon addition of each test drug at 10^-8 M and 10^-7 M were determined as anti-α1 action.

serotonin (5-HT) = serotonin (5-HT) (Cavia porcellus, UniProt A0A286Y537); assay: Anti-serotonin (5-HT) action (contraction of guinea pig superior mesenteric artery induced by serotonin); format: cell-based, Hartley male guinea pig; conditions: contraction induced by 10^-5 M 5-HT = 100%, helical superior mesenteric artery preparation, Tyrode solution, 37° C; for remaining activity at 1 µM: test drug 10^-6 M, read-out: Anti 5-HT action (% of Control), 10^-6 M; for remaining activity at 0.1 µM: test drug 10^-7 M, read-out: Anti 5-HT action (% of Control), 10^-7 M
Procedure: as §1
(2) Anti-serotonin (5-HT) action
A preparation cut in a helical form was suspended under restomg tension of 0.3 g in a Magnus cylinder filled with the Tyrode solution which had been aerated with a gas mixture of 95% O2 and 5% CO2 and maintained at 37° C. Using an isometric transducer ("UL-10", manufactured by SHINKOH K.K.) and a pressure preamplifier ("DSA-605A", manufactured by SHINKOH K.K.), variations in tension were measured. The isometric tensions were recorded on a pen-writing recorder ("VP-6537A", manufactured by NATIONAL K.K.). Taking the contraction induced by 10^-5 M serotonin (5-HT) as 100%, the percent contractions by 10^-5 M 5-HT in the presence of each test drug at 10^-8 M, 10^-7 M and 10^-6 M were determined as anti-5-HT action.

Sequence of serotonin (5-HT) (A0A286Y537 1-470): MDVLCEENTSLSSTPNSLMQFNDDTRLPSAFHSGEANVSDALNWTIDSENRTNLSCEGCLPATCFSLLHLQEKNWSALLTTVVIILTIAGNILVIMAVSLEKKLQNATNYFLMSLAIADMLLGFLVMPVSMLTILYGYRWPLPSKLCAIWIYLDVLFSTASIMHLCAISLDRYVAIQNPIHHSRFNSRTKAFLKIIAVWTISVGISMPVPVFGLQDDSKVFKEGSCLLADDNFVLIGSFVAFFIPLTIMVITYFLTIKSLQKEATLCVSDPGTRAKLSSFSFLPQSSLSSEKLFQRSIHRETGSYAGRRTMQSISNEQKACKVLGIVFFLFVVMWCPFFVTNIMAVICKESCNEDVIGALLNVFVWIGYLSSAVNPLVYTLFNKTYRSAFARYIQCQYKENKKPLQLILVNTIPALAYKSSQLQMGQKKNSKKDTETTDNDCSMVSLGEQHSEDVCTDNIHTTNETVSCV

`CN1CCC(=O)c2c(ccn2CCCCN2CCC(C(=O)c3ccc(F)cc3)CC2)C1=O` [Compound No. 15, 1-[4-[4-(4-fluorobenzoyl)piperidino]-butyl]-5-methyl-1,4,5,6,7,8-hexahydropyrrolo[3,2-c]azepine-4,8-dione] was tested, and the “Anti α1 action (% of Control), 10^-7 M” value (α1) was 35.4 % of Control, the “Anti α1 action (% of Control), 10^-8 M” value (α1) was 59.9 % of Control and the remaining activity at 1 µM (serotonin (5-HT)) was 26.6%. For the same compound, the remaining activity at 0.1 µM (serotonin (5-HT)) was 75.3%.

`CN1CCC(=O)c2c(ccn2CCCCN2CCC(c3noc4cc(F)ccc34)CC2)C1=O` [Compound No. 17, 1-[4-[4-(6-fluoro-1,2-benzisoxazol-3-yl)piperidino]butyl]-5-methyl-1,4,5,6,7,8-hexahydropyrrolo[3,2-c]azepine-4,8-dione] was tested, and the “Anti α1 action (% of Control), 10^-7 M” value (α1) was 14.0 % of Control, the “Anti α1 action (% of Control), 10^-8 M” value (α1) was 27.8 % of Control and the remaining activity at 1 µM (serotonin (5-HT)) was 8.9%. It also gave a remaining activity at 0.1 µM (serotonin (5-HT)) of 55.2% and a remaining activity at 0.01 µM (serotonin (5-HT); test drug 10^-8 M, read-out: Anti 5-HT action (% of Control), 10^-8 M) of 80.7%.

For `CN1CCC(=O)c2cn(CCCCN3CCC(C(=O)c4ccc(F)cc4)CC3)cc2C1=O` [Compound No. 18, 2-[4-[4-(4-fluorobenzoyl)piperidino]-butyl]-5-methyl-2,4,5,6,7,8-hexahydropyrrolo[3,4-c]azepine-4,8-dione], the “Anti α1 action (% of Control), 10^-7 M” value (α1) was 37.3 % of Control, the “Anti α1 action (% of Control), 10^-8 M” value (α1) was 76.0 % of Control and the remaining activity at 1 µM (serotonin (5-HT)) was 25.3%. The remaining activity at 0.1 µM (serotonin (5-HT)) was 81.7%.

`CN1CCC(=NO)c2cn(CCCCN3CCC(C(=O)c4ccc(F)cc4)CC3)cc2C1=O` [Compound No. 21, 2-[4-[4-(4-fluorobenzoyl)piperidino]-butyl]-8-hydroxyimino-5-methyl-2,4,5,6,7,8-hexahydropyrrolo[3,4-c]azepin-4-one] was tested, and the “Anti α1 action (% of Control), 10^-7 M” value (α1) was 36.9 % of Control, the “Anti α1 action (% of Control), 10^-8 M” value (α1) was 69.7 % of Control and the remaining activity at 1 µM (serotonin (5-HT)) was 24.9%. It also gave a remaining activity at 0.1 µM (serotonin (5-HT)) of 85.5%.
